Columns and labels:
Gbst-AcK = molecular target: T1, Gbst-AcK (Geobacillus stearothermophilus, UniProt A0ACH1E729); assay: HPLC of ATP formation; format: biochemical; conditions: […] ADP, […] AcP, […] MgCl2, […] KPB pH […] °C
T1 construct: gene ackA; codon-optimised gene in pET21a (NdeI/XhoI, no stop codon; C-terminal vector His tag), E. coli BL21(DE3), Ni column
T1 sequence (A0ACH1E729 1-396): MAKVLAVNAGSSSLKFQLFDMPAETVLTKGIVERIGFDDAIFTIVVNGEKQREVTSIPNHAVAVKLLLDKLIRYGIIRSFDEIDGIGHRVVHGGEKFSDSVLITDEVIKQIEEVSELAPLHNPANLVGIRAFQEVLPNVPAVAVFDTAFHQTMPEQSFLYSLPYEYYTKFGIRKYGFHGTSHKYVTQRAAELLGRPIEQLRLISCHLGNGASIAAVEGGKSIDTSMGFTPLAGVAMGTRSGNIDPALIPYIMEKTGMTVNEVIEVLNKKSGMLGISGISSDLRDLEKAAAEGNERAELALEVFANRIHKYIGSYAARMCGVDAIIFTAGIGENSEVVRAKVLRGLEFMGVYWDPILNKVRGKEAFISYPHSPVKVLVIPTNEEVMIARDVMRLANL

[1] = tested on: T2, NC(=O)c1ccc[n+]([C@@H]2O[C@H](CO)[C@@H](O)[C@H]2O)c1; assay: purified protein; format: biochemical, Kluyveromyces marxianus; conditions: apparent, 0.5 mM ATP, 12 mM MgCl2, 50 mM Tris-HCl pH 7.5, 50 mM NaCl, 50 mM KCl, 0.01% BSA, 30 °C
T2 construct: codon-optimised gene in pET21a (NdeI/XhoI, no stop codon; C-terminal vector His tag), E. coli BL21(DE3), Ni column; about 27 kDa

[2] = tested on: T3, Nc1ncnc2c1ncn2[C@@H]1O[C@H](COP(=O)(O)OP(=O)(O)OP(=O)(O)O)[C@@H](O)[C@H]1O; assay: purified protein; format: biochemical, Kluyveromyces marxianus; conditions: apparent, 0.5 mM NR, 12 mM MgCl2, 50 mM Tris-HCl pH 7.5, 50 mM NaCl, 50 mM KCl, 0.01% BSA, 30 °C
T3 construct: codon-optimised gene in pET21a (NdeI/XhoI, no stop codon; C-terminal vector His tag), E. coli BL21(DE3), Ni column; about 27 kDa

Molecule	HPLC of ATP formation (Gbst-AcK)	Km [1]	Km [2]
Nc1ncnc2c1ncn2[C@@H]1O[C@H](COP(=O)(O)OP(=O)(O)O)[C@@H](O)[C@H]1O [ADP]	assayed as the generation of ATP from ADP with a sufficient amount of AcP		
CC(=O)OP(=O)(O)O [AcP]	assayed as the generation of ATP from ADP with a sufficient amount of AcP		
Klm-NRK (Kluyveromyces marxianus DMKU3-1042)		45 ± 11 µM	70 ± 6 µM

From article PMC10992250, “Enzymatic synthesis of high-titer nicotinamide mononucleotide with a new nicotinamide riboside kinase and an efficient ATP regeneration system” (Bioresources and Bioprocessing, 2022)
